Source: article PMC8403742, “A single point mutation causes one-way alteration of pheromone receptor function in two Heliothis species” (iScience, 2021)
Entries after “also recorded” stand apart in the source; their conditions may differ.

Legend:
HsubOR6/HsubOrco = HsubOR6/HsubOrco (Heliothis subflexa, UniProt A0A8E4MSQ8); test: HsubOR6/HsubOrco co-expressed in Xenopus oocytes, two-electrode voltage clamp; format: cell-based; conditions: for response of receptor to compound: 10^-4 M solution
HvirOR6/HvirOrco = HvirOR6/HvirOrco (Heliothis virescens, UniProt Q8MMI0); test: HvirOR6/HvirOrco co-expressed in Xenopus oocytes, two-electrode voltage clamp; format: cell-based; conditions: for response of receptor to compound / response (inward current): HvirOR6/HvirOrco Xenopus oocytes; for response (inward current): concentration of 10^-4 M
[1] = molecular target: VM321 (HvirOR6 L321V, VM6) (Heliothis virescens, UniProt Q8MMI0, L321V); test: cell-based; format: cell-based; conditions: for response of mutant receptor to compound: 10^-4 M, HvirOR6 L321V (VM6/VM321)
SM321 (HsubOR6 V321L) = SM321 (HsubOR6 V321L) (Heliothis subflexa, UniProt A0A8E4MSQ8, V314L); test: cell-based; format: cell-based; conditions: for response of mutant receptor compared with HsubOR6: 10^-4 M, HsubOR6 V321L (SM321)
[2] = system: chimeric OR6s (VSS, SVV, VVS, and SSV); format: cell-based, Heliothis virescens, Heliothis subflexa
[3] = system: HvirOR6 mutants VM5, VM7, VM10, VM11, VM13, VM14, VM17, VM21, VM22, and VM30; format: cell-based, Heliothis virescens; conditions: 10^-4 M, 10 mutants VM5, VM7, VM10, VM11, VM13, VM14, VM17, VM21, VM22, VM30
[4] = system: HvirOR6 mutants VM1, VM2, VM3, VM4, VM12, VM15, VM16, VM20, VM23, VM24, VM29, and VM31; format: cell-based, Heliothis virescens; conditions: 10^-4 M, 12 mutants VM1, VM2, VM3, VM4, VM12, VM15, VM16, VM20, VM23, VM24, VM29, VM31
[5] = system: HvirOR6 mutants VM8, VM26, VM27, and VM28; format: cell-based, Heliothis virescens; conditions: 10^-4 M
[6] = system: HvirOR6 mutants VM9 and VM25; format: cell-based, Heliothis virescens; conditions: 10^-4 M
HvirOR6 mutant VM18 = format: cell-based, Heliothis virescens; conditions: 10^-4 M
HvirOR6 mutant VM19 = format: cell-based, Heliothis virescens; conditions: 10^-4 M
HsubOR13/HsubOrco = HsubOR13/HsubOrco co-expressed in Xenopus oocytes, two-electrode voltage clamp; conditions: 10^-4 M solution
Protocol: (§1) Stock solutions (1 M) were dissolved in dimethyl sulfoxide (DMSO) and stored at −20°C. Before experiments, the stock solution was diluted in 1 × Ringer's buffer (96 mM NaCl, 2 mM KCl, 5 mM MgCl2, 0.8 mM CaCl2 and 5 mM HEPES, pH 7.6) to working concentration of 10^−4 M. 1 × Ringer's buffer containing 0.1% DMSO was used as a negative control.
(§2) The vectors contain the full ORF of all ORs were linearized to prepare the templates and the cRNA was synthesized with mMESSAGE mMACHINE SP6 (Ambion). Stage V to VII oocytes were treated with 2 mg/mL collagenase I (GIBCO, Carlsbad, CA) in 1 × Ca^2+-free washing buffer (96 mM NaCl, 2 mM KCl, 5 mM MgCl2 and 5 mM HEPES, pH 7.6) for about 1 h at room temperature. After being cultured overnight at 18°C, oocytes were then microinjected with 27.6 ng of Orco cRNA and 27.6 ng of ORs cRNA. Oocytes microinjected with 55.2 ng of Orco were used as negative controls. Injected oocytes were incubated for 4–7 days at 18°C in 1 × washing buffer (96 mM NaCl, 2 mM KCl, 5 mM MgCl2, 0.8 mM CaCl2 and 5 mM HEPES, pH 7.6) supplemented with 5% dialysed horse serum, 50 mg/mL tetracycline, 100 mg/mL streptomycin and 550 mg/mL sodium pyruvate.
(§3) Whole-cell currents were recorded with a two-electrode voltage clamp from the injected oocytes. Odorant-induced currents were recorded with an OC-725C oocyte clamp (Warner Instruments, Hamden, CT, USA) at a holding potential of −80 mV. […]

HsubOR14/HsubOrco = HsubOR14/HsubOrco co-expressed in Xenopus oocytes, two-electrode voltage clamp; conditions: 10^-4 M solution
Protocol: as §1, §2, §3

HsubOR16/HsubOrco = HsubOR16/HsubOrco co-expressed in Xenopus oocytes, two-electrode voltage clamp; conditions: 10^-4 M solution
Protocol: as §1, §2, §3

HsubOR6/HsubOrco, sequence (A0A8E4MSQ8 1-424): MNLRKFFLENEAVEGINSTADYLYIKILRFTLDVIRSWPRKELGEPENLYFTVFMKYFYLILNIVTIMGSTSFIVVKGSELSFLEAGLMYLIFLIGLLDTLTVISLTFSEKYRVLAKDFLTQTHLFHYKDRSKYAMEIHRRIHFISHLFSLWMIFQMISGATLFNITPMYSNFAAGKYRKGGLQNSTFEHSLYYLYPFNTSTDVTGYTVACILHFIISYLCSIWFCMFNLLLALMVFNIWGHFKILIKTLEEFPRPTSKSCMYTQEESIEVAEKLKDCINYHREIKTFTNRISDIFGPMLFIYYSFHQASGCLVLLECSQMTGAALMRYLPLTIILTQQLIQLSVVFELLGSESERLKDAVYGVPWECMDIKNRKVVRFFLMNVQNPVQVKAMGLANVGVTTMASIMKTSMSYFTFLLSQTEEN

| SMILES | response of receptor to compound (HsubOR6/HsubOrco) | response of receptor to compound (HvirOR6/HvirOrco) | response (inward current) (HvirOR6/HvirOrco) | response of mutant receptor to compound [1] | response of mutant receptor compared with HsubOR6 (SM321 (HsubOR6 V321L)) | response of chimeric OR6s compared with original sequences [2] | response of HvirOR6 mutants compared with HvirOR6 [3] | response of HvirOR6 mutants compared with HvirOR6 [4] | also measured |
| --- | --- | --- | --- | --- | --- | --- | --- | --- | --- |
| CCCC/C=C\CCCCCCCC=O [Z9-14:Ald, (Z)-9-tetradecenal] | little if any response; also recorded: lost its ability to recognize | responsive | 1,541.96 nA | lost its response; also recorded: lost its ability to bind | remained unchanged | decreased significantly | did not have altered responses | significant decrease in the response | response to Z9-14:Ald relative to that to Z9-16:Ald (HvirOR6/HvirOrco; 10^-4 M, HvirOR6): about 8.23 times; response of HvirOR6 mutants compared with HvirOR6 [5]: increased responses; response of HvirOR6 mutants compared with HvirOR6 [6]: decreased responses |
| CCCCCC/C=C\CCCCCCCC=O [Z9-16:Ald, (Z)-9-hexadecenal] | responded; also recorded: specifically responsive | responsive | 187.44 nA | retaining the response | increased | decreased significantly | did not have altered responses | significant decrease in the response | average response (inward current) (HsubOR6/HsubOrco; concentration of 10^-4 M): 184.04 nA; EC50 (HsubOR6/HsubOrco; holding potential -80 mV, read-out: EC50 (dose-response of inward current)): 46.3 µM; EC50 (HvirOR6/HvirOrco): 24.8 µM; EC50 [1]: 40.8 µM; EC50 (SM321 (HsubOR6 V321L)): 20.4 µM; response of HvirOR6 mutant compared with HvirOR6 (HvirOR6 mutant VM18): increased response; response of HvirOR6 mutant compared with HvirOR6 (HvirOR6 mutant VM19): decreased response |
| CCCC/C=C\CCCCCCCCCC=O [Z11-16:Ald, (Z)-11-hexadecenal] |  |  |  |  |  |  |  |  | response of receptor to compound (HsubOR13/HsubOrco): specifically responded |
| CCCC/C=C\CCCCCCCCCCOC(C)=O [Z11-16:OAc, (Z)-11-hexadecenyl acetate] |  |  |  |  |  |  |  |  | response of receptor to compound (HsubOR14/HsubOrco): specifically activated |
| CCCC/C=C\CCCCCCCCCCO [Z11-16:OH, (Z)-11-hexadecen-1-ol] |  |  |  |  |  |  |  |  | response of receptor to compound (HsubOR16/HsubOrco): responded robustly |
